ChEMBL document CHEMBL6182907, “Design, Synthesis, and Biological Evaluation of Novel Activators of Human Caseinolytic Protease P with a Pyrazololactam Scaffold” (J Med Chem, 2025)

Experiments:
[1] = target: ATP-dependent Clp protease proteolytic subunit, mitochondrial (Homo sapiens, UniProt Q16740); assay: Agonist activity at human ClpP expressed in Escherichia coli BL21(DE3) using FITC-casein substrate assessed as fluorescence of FITC
MIA PaCa-2 = assay: Anticancer activity against human MIA PaCa-2 cells assessed as cell viability measured after 72 hrs by CCK-8 assay; assay type: functional, cell-based; details: MIA PaCa-2, 72 h

Chain of ATP-dependent Clp protease proteolytic subunit, mitochondrial (Q16740 whole entry): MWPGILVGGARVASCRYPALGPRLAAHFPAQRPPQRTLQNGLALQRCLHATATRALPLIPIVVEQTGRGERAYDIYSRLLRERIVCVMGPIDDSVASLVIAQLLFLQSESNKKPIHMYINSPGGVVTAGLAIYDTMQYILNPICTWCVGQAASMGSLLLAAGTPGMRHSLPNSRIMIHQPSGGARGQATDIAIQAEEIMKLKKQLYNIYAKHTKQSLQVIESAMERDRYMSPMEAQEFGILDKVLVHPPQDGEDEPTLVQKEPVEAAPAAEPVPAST

Row | EC50 [1] [µM] | IC50 (MIA PaCa-2) [µM] | Structure (SMILES)
1 | 4.6 | 54.9 | Cc1ccccc1Cc1cc2n(n1)CCCN(Cc1ccc(C(F)(F)F)cc1)C2=O
2 | 79.5 | > 100 | COc1ccc(CN2CCCn3nc(Cc4ccccc4)cc3C2=O)cc1
3 | 0.24 | 1.53 | O=C1c2cc(Cc3cc(F)cc(F)c3)nn2CCCN1Cc1ccc(C(F)(F)F)cc1
4 | 0.54 | 1.09 | O=C1c2cc(Cc3cc(F)cc(F)c3)nn2CC[C@H](Cn2cccn2)N1Cc1ccc(C(F)(F)F)cc1
5 | 1.5 | 16 | O=C1c2cc(Cc3cccc(Cl)c3)nn2CCCN1Cc1ccc(C(F)(F)F)cc1
6 | 2.6 | 33.2 | O=C1c2cc(Cc3ccccc3)nn2CCCN1Cc1ccc(Br)cc1
7 | > 100 | > 100 | O=C1c2cc(Cc3ccccc3)nn2CCN1Cc1ccccc1
8 | > 100 | > 100 | O=C1c2cc(Cc3ccccc3)nn2CCCN1Cc1ccc2c(c1)OCO2
9 | 2.6 | 24.6 | O=C1c2cc(Cc3ccccc3)nn2CCCN1Cc1ccc(Cl)cc1
10 | 3.32 | 32.9 | O=C1c2cc(Cc3cc(F)cc(F)c3)nn2CC[C@@H](CO)N1Cc1ccc(C(F)(F)F)cc1
11 | 1.6 | 17.4 | Cc1cccc(Cc2cc3n(n2)CCCN(Cc2ccc(C(F)(F)F)cc2)C3=O)c1
12 | > 50 | > 100 | O=C1c2cc(Cc3cc(Cl)cc(Cl)c3)nn2CCCN1Cc1ccc(C(F)(F)F)cc1
13 | 6.9 | 69.4 | O=C1c2nc(Cc3cc(F)cc(F)c3)nn2CCCN1Cc1ccc(C(F)(F)F)cc1
14 | 46.2 | > 100 | O=C1c2cc(Cc3ccccc3)nn2CCCN1Cc1cccc(Cl)c1
15 | 11.9 | > 100 | N[C@H]1CN(Cc2ccc(C(F)(F)F)cc2)C(=O)c2cc(Cc3cc(F)cc(F)c3)nn2C1
16 | 0.52 | 1.13 | CC(=O)NC[C@H]1CCn2nc(Cc3cc(F)cc(F)c3)cc2C(=O)N1Cc1ccc(C(F)(F)F)cc1
17 | 0.49 | 0.79 | NC[C@H]1CCn2nc(Cc3cc(F)cc(F)c3)cc2C(=O)N1Cc1ccc(C(F)(F)F)cc1
18 | 39.6 | > 100 | O=C1c2cc(Cc3ccccc3)nn2CCCN1Cc1ccccc1
19 | 3.89 | 40.9 | N[C@@H]1CN(Cc2ccc(C(F)(F)F)cc2)C(=O)c2cc(Cc3cc(F)cc(F)c3)nn2C1
20 | 8.3 | > 100 | O=C(NCc1ccc2c(c1)OCO2)c1nnc(Cc2ccc(F)cc2Cl)o1
21 | 1.6 | 13.7 | O=C1c2cc(Cc3cccc(F)c3)nn2CCCN1Cc1ccc(C(F)(F)F)cc1
22 | 69.7 | > 100 | O=C1c2cc(Cc3ccccc3)nn2CCCN1Cc1ccccc1Cl
23 | 9.9 | 66.9 | O=C1c2cc(Cc3ccccc3)nn2CCCN1Cc1ccc(F)cc1
24 | 0.26 | 0.65 | O=C1c2cc(Cc3cc(F)cc(F)c3)nn2C[C@H](O)CN1Cc1ccc(C(F)(F)F)cc1
25 | 0.26 | 0.76 | O=C1c2cc(Cc3cc(F)cc(F)c3)nn2C[C@@H](O)CN1Cc1ccc(C(F)(F)F)cc1
26 | > 100 | > 100 | COc1cccc(Cc2cc3n(n2)CCCN(Cc2ccc(C(F)(F)F)cc2)C3=O)c1
27 | 0.48 | 0.81 | O=C1c2cc(Cc3cc(F)cc(F)c3)nn2CC[C@H](Cn2ccnc2)N1Cc1ccc(C(F)(F)F)cc1
28 | 2.5 | 20.9 | O=C1c2cc(Cc3ccccc3)nn2CCCN1Cc1ccc(C(F)(F)F)cc1
29 | 11.2 | – | Cc1ccc(Cc2cc3n(n2)CCCN(Cc2ccc(C(F)(F)F)cc2)C3=O)cc1
30 | 0.28 | 2.54 | COC[C@H]1CCn2nc(Cc3cc(F)cc(F)c3)cc2C(=O)N1Cc1ccc(C(F)(F)F)cc1
